Assay results from US7803992B2, “Methods and compositions for expressing an herbicide-tolerant polynucleotide” (Pioneer Hi-Bred International, Inc., priority 2005, dated 2010).

Experiments:
GAT-HRA soybeans = experiment: Postemergence herbicide treatment of soybeans in greenhouse, visual injury; assay type: in vivo, soybean; settings: postemergence, glyphosate 8960, tribenuron-methyl 35, rimsulfuron 35 g/ha
Experimental: (§1) Young regenerated transgenic plants were sprayed with 1× glyphosate (1× rate of glyphosate is 1120 g/ha of glyphosate isopropylamine) to cull segregants. Four replications were performed for each treatment. Plants were then treated with various herbicides, including glyphosate and ALS-inhibitor herbicides.
(§2) Six soybean seeds from each variety to be assayed were planted 1 cm deep in 5.5 (13.97 cm) inch square plastic container of a synthetic growth medium. […] When possible, containers were thinned to two uniform plants. Non-transgenic lines were thinned to two uniform plants per container.
(§3) Results are expressed below in Table 11 as the mean of four replications.

[1] = test system: Wild Type soybeans (Jack); experiment: as above; assay type: in vivo, soybean; settings: postemergence, glyphosate 8960, tribenuron-methyl 35, rimsulfuron 35 g/ha
Experimental: as §1, §2, §3

[2] = test system: Non-glyphosate resistant Conyza (Welgevallen-paraquat resistant); experiment: Control of hairy fleabane by glyphosate, metsulfuron-methyl and two additives; assay type: in vivo, Conyza bonariensis; settings: glyphosate on its own; 10-15 leaf stage
Experimental: This example included the same treatments as used in Example 11, except the treatments were carried out on a glyphosate sensitive biotype of Kleinskraalhans (Conyza bonariensis). […] In this example, however, ammonium sulfate-based adjuvant (ADD-UP®) preformed better than bispyribac-sodium (VELOCITY®) with the mixture.
• Biotype: Non-glyphosate resistant Conyza (Welgevallen-paraquat resistant) • Growth Stage: 10-15 leaf stage • Condtions: Cool and sunny • Volume rate: 200 L ha^−1 • glyphosate (ROUNDUP): 360 g a.i. L^−1

[3] = test system: non-transformed GS3 embryos; experiment: Glyphosate kill curve on culture media; assay type: cell-based, maize; settings: about 40 days culture
Experimental: A glyphosate kill curve was established by testing non-transformed embryos response on media with different levels of glyphosate. GS3 embryos were isolated from an immature ear and placed onto media containing glyphosate at 0.0, 0.5, 1.0, and 2.0 mM. After about 40 days culture, the response of the embryos were observed and recorded. Similarly, infected GS3 embryos with the GAT construct were placed onto media containing glyphosate at 0.0, 0.5, 1.0, and 2.0 mM. After about 40 days culture, the response of the infected embryos were observed and recorded (FIG. 7).

[4] = test system: parent elite stiff stalk inbred corn; experiment: Postemergence herbicide application in greenhouse: fresh shoot weight and visual injury; assay type: in vivo
[5] = test system: Heterozygous GAT-HRA corn; experiment: as above; assay type: in vivo
[6] = test system: GAT-HRA transgenic cotton plants; experiment: Greenhouse over the top herbicide spray of cotton; assay type: in vivo, Gossypium hirsutum; settings: glyphosate 1.5 lb acid equivalent per acre at 4-6 leaf stage; 14 days after application
Excerpt: (§4) Transformed cotton plants were rooted and then transferred to soil for further growth. Plants were then subjected to herbicide spray treatments in a greenhouse. […] Untransformed Coker 312 control plants were dead 2 weeks after glyphosate application. […] Plants transformed with both GAT and HRA were further subjected to an “over the top” application of the sulfonylurea herbicide rimsulfuron at a rate of 16 g active ingredient/hectare. […] In further experiments 32 g ai/ha rimsulfuron were applied to the cotton.

[7] = test system: Untransformed Coker 312 cotton; experiment: Greenhouse over the top herbicide spray of cotton; assay type: in vivo, Gossypium hirsutum; settings: glyphosate 1.5 lb ae/acre, 2 weeks after application; rimsulfuron 16 g active ingredient/hectare without glyphosate
Excerpt: as §4

STS ® soybeans = experiment: Postemergence herbicide treatment of soybeans in greenhouse, visual injury; assay type: in vivo, soybean
Excerpt: When possible, containers were thinned to two uniform plants.

[8] = Zea mays, post-emergence, […], read-out: % Visual Injury

## O=C(O)CNCP(=O)(O)O [Glyphosate, N-phosphonomethylglycine]
GAT-HRA soybeans; event 59, mean
  % Visual Injury: 38%
GAT-HRA soybeans; event 59 line 21
  % Visual Injury: 40%
GAT-HRA soybeans; event 59 line 28
  % Visual Injury: 37%
GAT-HRA soybeans; event 60, mean
  % Visual Injury: 15%
GAT-HRA soybeans; event 60 line 07
  % Visual Injury: 19%
GAT-HRA soybeans; event 60 line 11
  % Visual Injury: 11%
GAT-HRA soybeans; event 60 line 22
  % Visual Injury: 11%
GAT-HRA soybeans; event 60 line 35
  % Visual Injury: 9%
GAT-HRA soybeans; event 60 line 41
  % Visual Injury: 13%
GAT-HRA soybeans; event 60 line 46
  % Visual Injury: 20%
GAT-HRA soybeans; event 60 line 70
  % Visual Injury: 9%
GAT-HRA soybeans; event 60 line 75
  % Visual Injury: 14%
GAT-HRA soybeans; event 60 line 77
  % Visual Injury: 19%
GAT-HRA soybeans; event 60 line 79
  % Visual Injury: 18%
GAT-HRA soybeans; event 60 line 82
  % Visual Injury: 20%
GAT-HRA soybeans; event 60 line 84
  % Visual Injury: 22%
GAT-HRA soybeans; event 61, mean
  % Visual Injury: 20%
GAT-HRA soybeans; event 61 line 02
  % Visual Injury: 10%
GAT-HRA soybeans; event 61 line 02B
  % Visual Injury: 10%
GAT-HRA soybeans; event 61 line 05
  % Visual Injury: 11%
GAT-HRA soybeans; event 61 line 14
  % Visual Injury: 10%
GAT-HRA soybeans; event 61 line 18
  % Visual Injury: 10%
GAT-HRA soybeans; event 61 line 24
  % Visual Injury: 60%
GAT-HRA soybeans; event 61 line 33
  % Visual Injury: 84%
GAT-HRA soybeans; event 61 line 34
  % Visual Injury: 23%
GAT-HRA soybeans; event 61 line 47
  % Visual Injury: 15%
GAT-HRA soybeans; event 61 line 49
  % Visual Injury: 9%
GAT-HRA soybeans; event 61 line 51
  % Visual Injury: 10%
GAT-HRA soybeans; event 61 line 60
  % Visual Injury: 16%
GAT-HRA soybeans; event 61 line 62
  % Visual Injury: 6%
GAT-HRA soybeans; event 61 line 99
  % Visual Injury: 10%
GAT-HRA soybeans; event 64, mean
  % Visual Injury: 14%
GAT-HRA soybeans; event 64 line 41
  % Visual Injury: 20%
GAT-HRA soybeans; event 64 line 47
  % Visual Injury: 10%
[1]; Wild Type line 82
  % Visual Injury: 100%
[1]; Wild Type line Jack
  % Visual Injury: 100%
[1]; Wild Type, mean
  % Visual Injury: 100%
[2]
  plants killed: 1 out of 16
  plants killed, percentage in brackets: 12%
[3]; media containing 1.0 and 2.0 mM glyphosate
  callus growth of embryos: very little callus growth
[3]; medium with 0.5 mM glyphosate
  embryos showing callus initiation: about half
[4]; [8]
  pest or weed control at 200 g/ha: 100%
[4]; postemergence, 200 g/ha (glyphosate 3472 g ae/ha, glufosinate ammonium 1870 g/ha), weighed 2 weeks after treatment, mean of four replications, untreated 76.4 g
  Fresh Weight: 1.0 g
[5]; [8]
  pest or weed control at 200 g/ha: 10%
[5]; postemergence, 200 g/ha (glyphosate 3472 g ae/ha, glufosinate ammonium 1870 g/ha), weighed 2 weeks after treatment, mean of four replications, untreated 98.8 g
  Fresh Weight: 97.4 g
[6]
  transgenic plants showing no deleterious symptoms: approximately 50%
[7]
  damage to untransformed control plants: dead
STS ® soybeans; STS ® line 25, glyphosate 8960, tribenuron-methyl 35, rimsulfuron 35 g/ha
  % Visual Injury: 100%
STS ® soybeans; STS ® line 46, glyphosate 8960, tribenuron-methyl 35, rimsulfuron 35 g/ha
  % Visual Injury: 100%
STS ® soybeans; STS ®, mean, glyphosate 8960, tribenuron-methyl 35, rimsulfuron 35 g/ha
  % Visual Injury: 100%
